Measured values taken from publication PMC5362409, “Antivascular and antitumor properties of the tubulin-binding chalcone TUB091” (Oncotarget, 2016).

Target: T1, αβ-tubulin (β-tubulin, colchicine site) (Bos taurus, UniProt P81947+Q6B856)
T1 construct: gene TUBB2B; calf brain tubulin; with α-tubulin
Test: fluorescence competition: displacement of TUB091 fluorescence by TUB092, giving Ka ([…] GTP)
Format: binding
Conditions: read-out: fluorescence competition: displacement of TUB091 fluorescence by TUB092, giving

COc1ccc(/C=C(\C)C(=O)c2cc(OC)c3c(c2)OCO3)cc1N [compound 11, (E)-3-(3’’-amino-4’’-methoxyphenyl)-1-(5’-methoxy-3’,4’-methylendioxyphenyl)-2-methylprop-2-en-1-one]
Kd: 90.9 nM
